Source: patent US7192906B2, “Substituted pyrazole derivatives, production process thereof, and herbicide compositions containing the derivatives” (SDS Biotech K.K., priority 2001, dated 2007)

How the values were obtained:
Assay type in all cases: in vivo
Chenopodium album [1] = assay: Test Example 1 upland field foliage treatment; conditions: Table 4, upland field foliage treatment, index 0-5
Method in brief: (§1)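 A leaf-surface application at an active-ingredient rate of 1 kg per hectare was made to 14-day-old plants in upland soil. Evaluation followed 21 days later using a six-grade scale, where grade 5 means at least 90% kill or phytotoxicity.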

Digitaria adscendens [2] = assay: Test Example 1 upland field foliage treatment; conditions: Table 4, upland field foliage treatment, index 0-5
Method in brief: as §1

Setaria viridis [3] = assay: Test Example 1 upland field foliage treatment; conditions: Table 4, upland field foliage treatment, index 0-5
Method in brief: as §1

Stellaria media [4] = assay: Test Example 1 upland field foliage treatment; conditions: Table 4, upland field foliage treatment, index 0-5
Method in brief: as §1

soybean (Glycine max) [5] = assay: Test Example 1 upland field foliage treatment, crop phytotoxicity; conditions: Table 4, upland field foliage treatment, index 0-5
Method in brief: as §1

[6] = test system: wheat (Triticum aestivum); assay: as above; conditions: Table 4, upland field foliage treatment, index 0-5
Method in brief: as §1

Chenopodium album [7] = assay: Test Example 2 upland soil treatment; conditions: Table 5, upland soil treatment, index 0-5
Method in brief: (§2)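 Dose of 1 kg active ingredient per hectare, given as diluted wettable powder to the soil surface the day after sowing in upland soil (~1 cm cover). Effect rated 21 days on: 5 for ≥90%, 4 for 70–<90%, down to 0 for <10%.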

Digitaria adscendens [8] = assay: Test Example 2 upland soil treatment; conditions: Table 5, upland soil treatment, index 0-5
Method in brief: as §2

Setaria viridis [9] = assay: Test Example 2 upland soil treatment; conditions: Table 5, upland soil treatment, index 0-5
Method in brief: as §2

Stellaria media [10] = assay: Test Example 2 upland soil treatment; conditions: Table 5, upland soil treatment, index 0-5
Method in brief: as §2

soybean (Glycine max) [11] = assay: Test Example 2 upland soil treatment, crop phytotoxicity; conditions: Table 5, upland soil treatment, index 0-5
Method in brief: as §2

[12] = test system: wheat (Triticum aestivum); assay: as above; conditions: Table 5, upland soil treatment, index 0-5
Method in brief: as §2

Ammannia multiflora = assay: Test Example 3 paddy field treatment; conditions: paddy field treatment, wettable powder, active ingredient 1 kg per hectare, 21st day after the dropping, index 0-5
Method in brief: (§3)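 Scoring used a 0–5 scale of herbicidal effect or phytotoxicity, from <10% to ≥90%, taken 21 days after treatment. Treatment was 1 kg a.i./ha as diluted wettable powder dripped onto 4 cm-deep flooded pots sown with the weeds, 10 days after transplanting two-leaf Koshihikari rice.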

Echinochloa crusgalli = assay: Test Example 3 paddy field treatment; conditions: paddy field treatment, wettable powder, active ingredient 1 kg per hectare, 21st day after the dropping, index 0-5
Method in brief: as §3

Monochoria vaginalis = assay: Test Example 3 paddy field treatment; conditions: paddy field treatment, wettable powder, active ingredient 1 kg per hectare, 21st day after the dropping, index 0-5
Method in brief: as §3

Scirpus juncoides = assay: Test Example 3 paddy field treatment; conditions: paddy field treatment, wettable powder, active ingredient 1 kg per hectare, 21st day after the dropping, index 0-5
Method in brief: as §3

Rice (Oryza sativa) = assay: Test Example 3 paddy field treatment, crop phytotoxicity; conditions: paddy field treatment, transplanted rice Koshihikari, wettable powder, active ingredient 1 kg per hectare, 21st day after the dropping, index 0-5
Method in brief: as §3

Row | SMILES | Herbicidal activity CA: Chenopodium album (Chenopodium album [1]) | Herbicidal activity DA: Digitaria adscendens (Digitaria adscendens [2]) | Herbicidal activity SV: Setaria viridis (Setaria viridis [3]) | Herbicidal activity SM: Stellaria media (Stellaria media [4]) | Herbicidal activity (phytotoxicity) GM: Soybean (Glycine max) (soybean (Glycine max) [5]) | Herbicidal activity (phytotoxicity) TA: Wheat (Triticum aestivum) [6] | Herbicidal activity CA: Chenopodium album (Chenopodium album [7]) | Herbicidal activity DA: Digitaria adscendens (Digitaria adscendens [8]) | Herbicidal activity SV: Setaria viridis (Setaria viridis [9]) | Herbicidal activity SM: Stellaria media (Stellaria media [10]) | Herbicidal activity (phytotoxicity) GM: Soybean (Glycine max) (soybean (Glycine max) [11]) | Herbicidal activity (phytotoxicity) TA: Wheat (Triticum aestivum) [12] | Herbicidal activity AM (Ammannia multiflora) | Herbicidal activity EC (Echinochloa crusgalli) | Herbicidal activity MV (Monochoria vaginalis) | Herbicidal activity SJ (Scirpus juncoides) | Herbicidal activity OS (phytotoxicity to rice) (Rice (Oryza sativa))
1 | CCNC(=O)C(Cn1cc(C)c(-c2ccccc2)n1)=NOC [Compound 19] | 5 (herbicidal effect of not less than 90%, or phytotoxicity of 90% or more) | 5 (herbicidal effect of not less than 90%, or phytotoxicity of 90% or more) | 5 (herbicidal effect of not less than 90%, or phytotoxicity of 90% or more) | 5 (herbicidal effect of not less than 90%, or phytotoxicity of 90% or more) | 0 (herbicidal effect of not less than 0% and less than 10%, or phytotoxicity of 0% or more and less than 10%) | 0 (herbicidal effect of not less than 0% and less than 10%, or phytotoxicity of 0% or more and less than 10%) | 5 (herbicidal effect of not less than 90%, or phytotoxicity of 90% or more) | 5 (herbicidal effect of not less than 90%, or phytotoxicity of 90% or more) | 5 (herbicidal effect of not less than 90%, or phytotoxicity of 90% or more) | 5 (herbicidal effect of not less than 90%, or phytotoxicity of 90% or more) | 0 (herbicidal effect of not less than 0% and less than 10%, or phytotoxicity of 0% or more and less than 10%) | 0 (herbicidal effect of not less than 0% and less than 10%, or phytotoxicity of 0% or more and less than 10%) | 5 (herbicidal effect of not less than 90%, or phytotoxicity of 90% or more) | 5 (herbicidal effect of not less than 90%, or phytotoxicity of 90% or more) | 5 (herbicidal effect of not less than 90%, or phytotoxicity of 90% or more) | 5 (herbicidal effect of not less than 90%, or phytotoxicity of 90% or more) | 0 (herbicidal effect of not less than 0% and less than 10%, or phytotoxicity of 0% or more and less than 10%)
2 | CON=C(Cn1cc(C)c(-c2ccccc2)n1)C(=O)NCC(F)(F)F [Compound 34] | 4 (herbicidal effect of not less than 70% and less than 90%, or phytotoxicity of 70% or more and less than 90%) | 5 (herbicidal effect of not less than 90%, or phytotoxicity of 90% or more) | 4 (herbicidal effect of not less than 70% and less than 90%, or phytotoxicity of 70% or more and less than 90%) | 4 (herbicidal effect of not less than 70% and less than 90%, or phytotoxicity of 70% or more and less than 90%) | 0 (herbicidal effect of not less than 0% and less than 10%, or phytotoxicity of 0% or more and less than 10%) | 0 (herbicidal effect of not less than 0% and less than 10%, or phytotoxicity of 0% or more and less than 10%) | 5 (herbicidal effect of not less than 90%, or phytotoxicity of 90% or more) | 5 (herbicidal effect of not less than 90%, or phytotoxicity of 90% or more) | 4 (herbicidal effect of not less than 70% and less than 90%, or phytotoxicity of 70% or more and less than 90%) | 5 (herbicidal effect of not less than 90%, or phytotoxicity of 90% or more) | 0 (herbicidal effect of not less than 0% and less than 10%, or phytotoxicity of 0% or more and less than 10%) | 0 (herbicidal effect of not less than 0% and less than 10%, or phytotoxicity of 0% or more and less than 10%) | 5 (herbicidal effect of not less than 90%, or phytotoxicity of 90% or more) | 5 (herbicidal effect of not less than 90%, or phytotoxicity of 90% or more) | 5 (herbicidal effect of not less than 90%, or phytotoxicity of 90% or more) | 5 (herbicidal effect of not less than 90%, or phytotoxicity of 90% or more) | 1 (herbicidal effect of not less than 10% and less than 30%, or phytotoxicity of 10% or more and less than 30%)
3 | CNC(=O)C(Cn1cc(C)c(-c2cccc(F)c2)n1)=NOC [Compound 43] | 5 (herbicidal effect of not less than 90%, or phytotoxicity of 90% or more) | 5 (herbicidal effect of not less than 90%, or phytotoxicity of 90% or more) | 5 (herbicidal effect of not less than 90%, or phytotoxicity of 90% or more) | 5 (herbicidal effect of not less than 90%, or phytotoxicity of 90% or more) | 0 (herbicidal effect of not less than 0% and less than 10%, or phytotoxicity of 0% or more and less than 10%) | 0 (herbicidal effect of not less than 0% and less than 10%, or phytotoxicity of 0% or more and less than 10%) | 5 (herbicidal effect of not less than 90%, or phytotoxicity of 90% or more) | 5 (herbicidal effect of not less than 90%, or phytotoxicity of 90% or more) | 5 (herbicidal effect of not less than 90%, or phytotoxicity of 90% or more) | 5 (herbicidal effect of not less than 90%, or phytotoxicity of 90% or more) | 1 (herbicidal effect of not less than 10% and less than 30%, or phytotoxicity of 10% or more and less than 30%) | 0 (herbicidal effect of not less than 0% and less than 10%, or phytotoxicity of 0% or more and less than 10%) | 5 (herbicidal effect of not less than 90%, or phytotoxicity of 90% or more) | 5 (herbicidal effect of not less than 90%, or phytotoxicity of 90% or more) | 5 (herbicidal effect of not less than 90%, or phytotoxicity of 90% or more) | 5 (herbicidal effect of not less than 90%, or phytotoxicity of 90% or more) | 1 (herbicidal effect of not less than 10% and less than 30%, or phytotoxicity of 10% or more and less than 30%)
4 | CNC(=O)C(Cn1cc(Cl)c(-c2ccccc2)n1)=NOC [Compound 14] | 5 (herbicidal effect of not less than 90%, or phytotoxicity of 90% or more) | 5 (herbicidal effect of not less than 90%, or phytotoxicity of 90% or more) | 5 (herbicidal effect of not less than 90%, or phytotoxicity of 90% or more) | 5 (herbicidal effect of not less than 90%, or phytotoxicity of 90% or more) | 0 (herbicidal effect of not less than 0% and less than 10%, or phytotoxicity of 0% or more and less than 10%) | 0 (herbicidal effect of not less than 0% and less than 10%, or phytotoxicity of 0% or more and less than 10%) | 5 (herbicidal effect of not less than 90%, or phytotoxicity of 90% or more) | 5 (herbicidal effect of not less than 90%, or phytotoxicity of 90% or more) | 5 (herbicidal effect of not less than 90%, or phytotoxicity of 90% or more) | 5 (herbicidal effect of not less than 90%, or phytotoxicity of 90% or more) | 1 (herbicidal effect of not less than 10% and less than 30%, or phytotoxicity of 10% or more and less than 30%) | 0 (herbicidal effect of not less than 0% and less than 10%, or phytotoxicity of 0% or more and less than 10%) | 5 (herbicidal effect of not less than 90%, or phytotoxicity of 90% or more) | 5 (herbicidal effect of not less than 90%, or phytotoxicity of 90% or more) | 5 (herbicidal effect of not less than 90%, or phytotoxicity of 90% or more) | 5 (herbicidal effect of not less than 90%, or phytotoxicity of 90% or more) | 1 (herbicidal effect of not less than 10% and less than 30%, or phytotoxicity of 10% or more and less than 30%)
